Results published in paper PMC11251168, “Effect of ABCB1 most frequent polymorphisms on the accumulation of bictegravir in recombinant HEK293 cell lines” (Scientific Reports, 2024).
Structures can show the parent of a compound that is named as a salt.

Tests used:
[1] = system: ABCB1 1199G-1236T-2677T-3435T; test: Intracellular bictegravir accumulation in HEK293 cells overexpressing ABCB1 TTT haplotype (HEKTTT); format: in vitro ADME, human; details: 2 h incubation, 0.25-5 mg/l; Fig. 4
Excerpt: (§1) The generation and characterization of recombinant cell lines have been described in previous work conducted by our lab[26],[42]. Briefly, human embryonic kidney (HEK293) cells were purchased from American Type Culture Collection and transfected with plasmids carrying either wild-type ABCB1 1199G-1236C-2677G-3435C (thereafter named HEKWT) or several ABCB1 variant combinations obtained using site-directed mutagenesis, 1199A-1236C-2677G-3435C (thereafter named HEK1199A), 1199G-1236C-2677G-3435T (thereafter named HEKCGT) and 1199G-1236T-2677T-3435T (thereafter named HEKTTT); or an empty vector (thereafter named HEKcontrol). HEKCGT was selected, in addition to HEKWT (carrying the CGC haplotype) and HEKTTT, to test the potential impact of c.3435C > T variant. HEK293 cells feature low endogenous levels of expression of ABCB1, ensuring that ABCB1 expression originates almost exclusively from the transfection process. This model has previously been extensively characterized using flow cytometry, Western blot, and fluorescence microscopy, and validated using reference substrates and inhibitors of ABCB1[26],[42]. As the same cells were used, only flow cytometry and functional tests using reference substrates and inhibitors were used to re-characterize them.
(§2) 0.7 × 10^6 cells were seeded on poly-l-lysine-coated 12-well plates and incubated overnight. […] Cell suspensions were centrifugated for 10 min at 10,500×g, 4 °C and 100 μl of the supernatant was transferred to a vial for bictegravir liquid chromatography-tandem mass spectrometry (LC–MS/MS) quantification. […] This mixed solution was used for protein quantification for results normalization.
(§3) Bictegravir intracellular concentrations were determined using an adapted version of a previously published LC–MS/MS method on a Xevo TQS-micro tandem quadrupole mass spectrometer (Waters)[46]. […] The following ion transitions were monitored: 450.1 > 289.1 for bictegravir and 453.2 > 289.2 for bictegravir-15N, d2.
(§4) Total proteins were quantified in pellets using the BCA kit (Thermo Fisher Scientific) according to the manufacturer’s instructions. […]

[2] = target: T1, ABCB1 1199G-1236T-2677T-3435T (Homo sapiens, UniProt P08183); test: as above; format: in vitro ADME; details: 2 h incubation, 0.25-5 mg/l; Fig. 4
T1 construct: expressed in transfected cells; host or cells: HEK293 (ATCC), pcDNA3.1 plasmid, G418 selection
Excerpt: as §1, §2, §3, §4

[3] = design: method as in PMID 36701274; details: cited from earlier work
[4] = design: method as in PMID 36701274; details: thought to be mainly due to passive diffusion; cited from earlier work
ABCB1 = system: ABCB1; design: method as in PMID 36701274; details: ABCB1-overexpressing MDCK II transfected cells compared with non-transfected cells; cited from earlier work
[5] = target: T2, ABCB1 1199A-1236C-2677G-3435C (Homo sapiens, UniProt P08183, S400N/S893A); test: Intracellular bictegravir accumulation in HEK293 cells overexpressing ABCB1 1199A variant (HEK1199A); format: in vitro ADME; details: 2 h incubation, 0.25-5 mg/l, Fig. 3
T2 construct: expressed in transfected cells; host or cells: HEK293 (ATCC), pcDNA3.1 plasmid, G418 selection
Excerpt: as §1, with “HEKCGT was selected, in addition to HEKWT (carrying the CGC haplotype) and HEKTTT, to test the potential impact of c.3435C > T variant. HEK293 cells feature low endogenous levels of expression of ABCB1, ensuring that ABCB1 expression originates almost exclusively from the transfection process.” left out, “As the same cells were used, only flow cytometry and functional tests using reference substrates and inhibitors were used to re-characterize them.” left out
as §2
(§5) Bictegravir intracellular concentrations were determined using an adapted version of a previously published LC–MS/MS method on a Xevo TQS-micro tandem quadrupole mass spectrometer (Waters)[46]. […]

[6] = target: T3, ABCB1 wild-type 1199G-1236C-2677G-3435C (Homo sapiens, UniProt P08183, S893A); test: Intracellular bictegravir accumulation in HEK293 cells overexpressing wild-type ABCB1 (HEKWT); format: in vitro ADME; details: 2 h incubation, 0.25-5 mg/l
T3 construct: expressed in transfected cells; host or cells: HEK293 (ATCC), pcDNA3.1 plasmid, G418 selection
Excerpt: as §1, with “HEKCGT was selected, in addition to HEKWT (carrying the CGC haplotype) and HEKTTT, to test the potential impact of c.3435C > T variant. HEK293 cells feature low endogenous levels of expression of ABCB1, ensuring that ABCB1 expression originates almost exclusively from the transfection process.” left out, “As the same cells were used, only flow cytometry and functional tests using reference substrates and inhibitors were used to re-characterize them.” left out
as §2, §5

[7] = target: T4, ABCB1 (wild-type, HEK1199G cells; HEKcontrol cells) (Homo sapiens, UniProt P08183, S893A); test: Intracellular bictegravir accumulation with or without the ABCB1 inhibitor zosuquidar (Supplementary Fig. 2); format: in vitro ADME; details: bictegravir 2500 ng/mL, 120 min, zosuquidar 0.2 μM preincubation 15 min
T4 construct: expressed in transfected cells; host or cells: HEK293 (ATCC), pcDNA3.1 plasmid, G418 selection
Description: 0.7x10^6 cells were seeded on poly-l-lysine-coated 12-well plates and incubated overnight. The next day, bictegravir and zosuquidar dilutions were prepared from a stock solution. Cells were incubated for 120 minutes at 37 °C (5% CO2) in the presence of bictegravir at 2500 ng/mL. The effect of ABCB1 inhibition was assessed by preincubation of the cells for 15 minutes with zosuquidar at a concentration of 0.2 μM. Subsequently, plates were then centrifuged for 3 min at 4 °C, and maintained on ice throughout the experiment to block drug efflux. Cells were washed twice with 1 mL […]
Drug extraction was then performed as described in the Manuscript, in the Methods section describing Intracellular bictegravir accumulation experiments. Drug quantification and protein quantification were performed as described in the dedicated Methods sections.
Reported statistical analysis: ANOVA-2 with post-hoc Bonferroni correction test, performed on log- […]
(1 picture or pasted object on this page, not shown here)

[8] = target: T5, ABCB1 1199G-1236C-2677G-3435T (Homo sapiens, UniProt P08183, S893A); test: Intracellular bictegravir accumulation in HEK293 cells overexpressing ABCB1 CGT haplotype (HEKCGT); format: in vitro ADME; details: 2 h incubation, 0.25-5 mg/l; Fig. 4
T5 construct: expressed in transfected cells; host or cells: HEK293 (ATCC), pcDNA3.1 plasmid, G418 selection
Excerpt: as §1, with “HEKCGT was selected, in addition to HEKWT (carrying the CGC haplotype) and HEKTTT, to test the potential impact of c.3435C > T variant. HEK293 cells feature low endogenous levels of expression of ABCB1, ensuring that ABCB1 expression originates almost exclusively from the transfection process.” left out, “As the same cells were used, only flow cytometry and functional tests using reference substrates and inhibitors were used to re-characterize them.” left out
as §2, §5

[9] = design: method as in PMID 32868324, PMID 32199329; details: cited from earlier work
[10] = system: human peripheral blood mononuclear cells; design: method as in PMID 36806669; details: cited from earlier work
[11] = design: method as in PMID 32868324, PMID 32199329; details: cited from earlier work; remark: listed apart in the source
[12] = design: method as in PMID 36701274; details: cited from earlier work; remark: listed apart in the source
[13] = system: ABCB1 c.1199G > A variant; details: cited from earlier work
[14] = system: ABCB1 (HEKWT, HEK1199A, HEKCGT, HEKTTT, HEKcontrol); test: Model functionality assay: Rhodamine123 intracellular fluorescence with or without zosuquidar; format: cell-based, human; details: Rh123 5 μM, 90 min
Description: 0.05 × 10^6 cells were seeded on poly-l-lysine coated 96-well plates and incubated overnight. The next day, Rh123 and zosuquidar dilutions were prepared from a stock solution. Cells were incubated for 90 min at 37 °C in the presence of Rh123 at 5 μM. The effect of ABCB1 inhibition was assessed by preincubation of the cells for 15 min with zosuquidar at a concentration of 0.2 μM. After incubation with Rh123, the supernatants were discarded. The cells were washed two times with ice-cold PBS. Sterile water was then added and detachment and lysis were performed through scratching of the well’s surface followed by sonication. Finally, fluorescence of Rh123 was analyzed by an iD3 Spectramax (Molecular Devices) fluorometer (c.1199G > A model validation) or a M3 Spectramax (Molecular Devices) fluorometer (haplotype model validation); excitation wavelength was set at 485 nm and emission at 530 nm. The solution was then used for protein quantification for results normalization.
Statistical analyses were carried out using GraphPad Prism version 9.5.1 for Mac OS X (GraphPad Software). For the functional assays, protein normalized intracellular fluorescences were compared after log-transformation using the natural logarithm (Ln), when required. Comparison was performed using a two-way ANOVA (α = 0.05) followed by a post-hoc analysis testing the effect of the inhibitor, with Bonferroni correction for multiple testing. For the intracellular bictegravir accumulation experiments, triplicates were performed during each experiment, and each experiment was performed thrice. For each experiment, protein normalized bictegravir intracellular concentrations were reported as fold-change of the mean of the protein normalized bictegravir intracellular concentration observed at the lowest bictegravir exposition concentration for HEKcontrol during the same experiment. Fold-change results from the three biological replicates were pooled and are shown on Figs. 3 and 4. Statistical analysis were performed on Ln transformed data that were pooled using the same principle as described here above. […]

PBMCs = test: Preliminary clinical pharmacokinetic assessments of intracellular accumulation in PBMCs; format: in vivo
[15] = system: ABCB1 c.1236C > T, c.2677G > T and c.3435C > T variants; details: cited from earlier work
[16] = zosuquidar 0.2 μM, 15 min preincubation

T2 sequence (P08183 whole entry S400N/S893A): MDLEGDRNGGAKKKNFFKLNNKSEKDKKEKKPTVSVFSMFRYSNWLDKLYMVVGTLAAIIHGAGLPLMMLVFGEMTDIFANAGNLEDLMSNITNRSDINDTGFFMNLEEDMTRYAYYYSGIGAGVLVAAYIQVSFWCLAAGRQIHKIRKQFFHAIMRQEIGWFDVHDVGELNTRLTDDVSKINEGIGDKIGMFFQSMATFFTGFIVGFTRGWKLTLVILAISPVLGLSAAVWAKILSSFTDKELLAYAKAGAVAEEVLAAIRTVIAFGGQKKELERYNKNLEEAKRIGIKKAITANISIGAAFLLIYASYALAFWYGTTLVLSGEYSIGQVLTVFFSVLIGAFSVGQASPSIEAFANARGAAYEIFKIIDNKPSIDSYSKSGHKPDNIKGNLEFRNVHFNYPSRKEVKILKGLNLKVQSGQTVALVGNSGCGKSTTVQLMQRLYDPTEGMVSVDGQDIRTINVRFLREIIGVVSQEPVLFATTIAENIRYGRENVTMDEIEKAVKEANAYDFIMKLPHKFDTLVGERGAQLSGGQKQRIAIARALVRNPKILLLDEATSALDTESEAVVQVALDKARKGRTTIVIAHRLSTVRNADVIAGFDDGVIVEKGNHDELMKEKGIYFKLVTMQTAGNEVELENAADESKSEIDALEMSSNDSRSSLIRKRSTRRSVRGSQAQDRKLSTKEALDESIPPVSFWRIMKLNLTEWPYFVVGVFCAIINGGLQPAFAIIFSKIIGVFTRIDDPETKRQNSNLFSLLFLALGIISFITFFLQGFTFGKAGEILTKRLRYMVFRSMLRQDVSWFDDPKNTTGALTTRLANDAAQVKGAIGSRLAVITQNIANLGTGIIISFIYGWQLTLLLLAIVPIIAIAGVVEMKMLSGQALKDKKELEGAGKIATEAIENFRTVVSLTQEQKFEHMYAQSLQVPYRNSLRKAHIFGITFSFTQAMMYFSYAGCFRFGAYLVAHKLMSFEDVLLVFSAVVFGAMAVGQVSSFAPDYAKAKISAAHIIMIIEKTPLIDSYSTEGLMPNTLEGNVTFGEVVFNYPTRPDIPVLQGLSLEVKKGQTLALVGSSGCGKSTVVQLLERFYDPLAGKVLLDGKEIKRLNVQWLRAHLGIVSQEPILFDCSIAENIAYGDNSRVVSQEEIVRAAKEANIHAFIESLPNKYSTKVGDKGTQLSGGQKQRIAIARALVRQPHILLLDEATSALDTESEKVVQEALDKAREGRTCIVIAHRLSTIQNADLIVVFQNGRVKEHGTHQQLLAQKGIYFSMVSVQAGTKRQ
T3 sequence (P08183 whole entry S893A): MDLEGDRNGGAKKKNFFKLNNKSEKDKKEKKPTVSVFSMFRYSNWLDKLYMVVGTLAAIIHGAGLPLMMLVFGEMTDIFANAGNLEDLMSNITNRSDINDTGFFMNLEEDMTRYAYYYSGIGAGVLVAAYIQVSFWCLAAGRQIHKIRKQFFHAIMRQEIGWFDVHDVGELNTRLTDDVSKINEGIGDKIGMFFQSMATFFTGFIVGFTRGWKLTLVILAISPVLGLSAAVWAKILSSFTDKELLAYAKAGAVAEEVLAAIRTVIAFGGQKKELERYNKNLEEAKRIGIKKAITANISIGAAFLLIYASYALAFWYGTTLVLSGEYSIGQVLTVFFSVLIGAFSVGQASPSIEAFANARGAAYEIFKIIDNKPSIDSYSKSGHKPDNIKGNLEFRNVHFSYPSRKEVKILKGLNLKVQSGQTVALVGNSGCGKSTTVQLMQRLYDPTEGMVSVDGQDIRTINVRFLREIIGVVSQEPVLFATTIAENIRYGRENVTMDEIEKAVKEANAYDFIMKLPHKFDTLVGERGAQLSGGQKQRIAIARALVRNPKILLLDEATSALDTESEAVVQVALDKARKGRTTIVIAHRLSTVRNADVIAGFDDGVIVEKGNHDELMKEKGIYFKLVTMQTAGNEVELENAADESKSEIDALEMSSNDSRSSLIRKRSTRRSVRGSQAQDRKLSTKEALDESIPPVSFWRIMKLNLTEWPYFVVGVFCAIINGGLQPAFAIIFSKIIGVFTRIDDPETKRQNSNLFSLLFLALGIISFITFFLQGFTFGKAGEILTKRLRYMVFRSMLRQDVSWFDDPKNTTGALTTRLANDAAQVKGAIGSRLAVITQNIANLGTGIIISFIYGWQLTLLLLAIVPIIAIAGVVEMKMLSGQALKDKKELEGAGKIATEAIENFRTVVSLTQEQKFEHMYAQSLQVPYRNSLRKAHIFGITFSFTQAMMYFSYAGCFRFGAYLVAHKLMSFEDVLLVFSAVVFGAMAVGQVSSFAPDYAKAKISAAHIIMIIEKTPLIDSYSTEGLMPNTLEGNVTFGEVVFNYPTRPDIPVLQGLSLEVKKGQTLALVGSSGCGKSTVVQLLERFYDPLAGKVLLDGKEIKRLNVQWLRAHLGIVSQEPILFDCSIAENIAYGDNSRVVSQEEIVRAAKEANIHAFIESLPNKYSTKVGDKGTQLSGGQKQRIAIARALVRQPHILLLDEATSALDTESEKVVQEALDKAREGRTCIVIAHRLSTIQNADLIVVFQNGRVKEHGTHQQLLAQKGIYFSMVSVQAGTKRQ
T5 sequence (P08183 whole entry S893A): as above
T4 sequence (P08183 whole entry S893A): as above

## O=C(NCc1c(F)cc(F)cc1F)c1cn2c(c(O)c1=O)C(=O)N1[C@H]3CC[C@H](C3)O[C@@H]1C2 [bictegravir]
[1]
  difference of bictegravir intracellular accumulation, HEKCGT vs HEKTTT: did not show any significant difference
  difference of bictegravir intracellular accumulation, HEKWT vs HEKTTT: did not show any significant difference
[2]
  bictegravir intracellular accumulation, HEKTTT versus HEKcontrol: significantly lower
[3]
  biopharmaceutical classification system class: class II
  solubility (biopharmaceutical classification system): low solubility
[4]
  oral bioavailability: high
ABCB1
  transport by ABCB1: active transport
[5]
  difference of bictegravir intracellular accumulation between HEKWT and HEK1199A: did not show any significant difference
[5]; protein-normalized, fold-change
  bictegravir intracellular accumulation, HEK1199A versus HEKcontrol: significantly lower
[6]; c.1199G > A experiments, protein-normalized, fold-change, Fig. 3
  bictegravir intracellular accumulation, HEKWT versus HEKcontrol: significantly lower
[6]; haplotype experiments, Fig. 4
  bictegravir intracellular accumulation, HEKWT versus HEKcontrol: significantly lower
[7]
  change of bictegravir intracellular accumulation in the presence of zosuquidar, HEK1199G cells: significant increase
[8]
  bictegravir intracellular accumulation, HEKCGT versus HEKcontrol: significantly lower
  difference of bictegravir intracellular accumulation, HEKWT vs HEKCGT: did not show any significant difference
[9]
  ratios of cerebrospinal fluid over plasma bictegravir concentrations: low
[10]
  accumulation into human peripheral blood mononuclear cells: limited
[11]
  plasma protein binding: high
[12]
  permeability (biopharmaceutical classification system): high permeability
  transepithelial permeability: High

## Cc1nc(Nc2ncc(C(=O)Nc3c(C)cccc3Cl)s2)cc(N2CCN(CCO)CC2)n1 [dasatinib]
[13]
  effect of c.1199G > A variant on transport: affect the transport

## COC(=O)c1ccccc1-c1c2ccc(=N)cc-2oc2cc(N)ccc12 [Rh123, Rhodamine123]
[14]; HEKWT, HEK1199A, HEKCGT and HEKTTT, without zosuquidar
  Rh123 intracellular fluorescence in cell lines overexpressing ABCB1 compared to HEKcontrol: significantly lower

## C[C@@H]1CCO[C@H]2Cn3cc(C(=O)NCc4ccc(F)cc4F)c(=O)c(O)c3C(=O)N12 [dolutegravir]
PBMCs
  intracellular accumulation in PBMCs compared to bictegravir: higher

## O[C@@H](COc1cccc2ncccc12)CN1CCN([C@@H]2c3ccccc3[C@@H]3[C@H](c4ccccc42)C3(F)F)CC1 [zosuquidar, zosuquidar hydrochloride]
[14]; [16]
  Rh123 intracellular fluorescence after pre-incubation with zosuquidar, cell lines overexpressing ABCB1: increased to a level close to the level measured for HEKcontrol
  effect of the inhibitor on Rh123 fluorescence in the HEKcontrol batch used for haplotype functional characterization: small but significant effect

## Cc1ccc(NC(=O)c2ccc(CN3CCN(C)CC3)cc2)cc1Nc1nccc(-c2cccnc2)n1 [imatinib]
[15]
  impact of c.1236C > T, c.2677G > T and c.3435C > T variants on anti-proliferative activity: more pronounced effect

## C=CC[C@@H]1/C=C(\C)C[C@H](C)C[C@H](OC)[C@H]2O[C@@](O)(C(=O)C(=O)N3CCCC[C@H]3C(=O)O[C@H](/C(C)=C/[C@@H]3CC[C@@H](O)[C@H](OC)C3)[C@H](C)[C@@H](O)CC1=O)[C@H](C)C[C@@H]2OC [tacrolimus]
[13]; same cellular model
  impact of c.1199G > A variant on intracellular accumulation: significant impact

## Cc1cn(-c2cc(NC(=O)c3ccc(C)c(Nc4nccc(-c5cccnc5)n4)c3)cc(C(F)(F)F)c2)cn1 [nilotinib]
[13]
  effect of c.1199G > A variant on transport: affect the transport
